Patent US20250188032A1, “NITROGEN-CONTAINING HETEROCYCLIC COMPOUNDS AND USES THEREOF” (BNH RESEARCH CO., LTD., priority 2022, published 2025)

Tests used:
Assay in all cases: HDAC catalytic activity, fluorogenic substrate
Assay type in all cases: biochemical
Conditions in all cases: 10-dose, 3-fold serial dilution starting at 100 μM, duplicates
HDAC11 = molecular target: T1, HDAC11 (Homo sapiens, UniProt Q96DB2)
T1 sequence (Q96DB2 1-347): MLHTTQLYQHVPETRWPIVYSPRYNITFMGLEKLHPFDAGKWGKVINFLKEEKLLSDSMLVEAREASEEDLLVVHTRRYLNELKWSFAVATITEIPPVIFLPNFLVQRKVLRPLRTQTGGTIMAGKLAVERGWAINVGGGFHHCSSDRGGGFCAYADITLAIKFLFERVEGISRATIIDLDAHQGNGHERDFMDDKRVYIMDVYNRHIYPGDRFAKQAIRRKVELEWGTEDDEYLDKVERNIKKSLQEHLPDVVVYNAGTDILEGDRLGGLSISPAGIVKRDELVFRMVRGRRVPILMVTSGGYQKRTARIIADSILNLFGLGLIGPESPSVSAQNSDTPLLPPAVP
Experimental: (§1) The compound (racemate) was resuspended in 100 mM DMSO and tested in a 10-dose IC50 with 3-fold serial dilution starting at 100 μM against HDACs 1-9, and 11. As reference compounds, Trichostatin A (TSA) and TMP269 were tested in a 10-dose IC50 with 3-fold serial dilution starting at 10 μM or 1 μM.
(§2) 10 μM Fluorogenic peptide from p53 residues 379-382 (RHKK(Ac)AMC) was used for the substrate for HDAC 1, 2, 3, and 6, 50 μM Fluorogenic HDAC Class2a Substrate (Trifluoroacetyl Lysine) was used for the substrate for HDAC 4, 5, 7, 9, and 11, 100 μM Fluorogenic peptide from p53 residues 379-382 (RHK(Ac)K(Ac)AMC) was used for the substrate for HDAC8.
(§3) IC50 values were calculated using the GraphPad Prism 4 program based on a sigmoidal dose-response equation and the blank (DMSO) value concentration was entered as 1.00E-12 M for curve fitting.

HDAC3 = HDAC3 (Homo sapiens, UniProt O15379)
Experimental: as §1, §2, §3

HDAC4 = HDAC4 (Homo sapiens, UniProt P56524)
Experimental: as §1, §2, §3

HDAC6 = molecular target: T2, HDAC6 (Homo sapiens, UniProt Q9UBN7)
T2 sequence (Q9UBN7 1-1215): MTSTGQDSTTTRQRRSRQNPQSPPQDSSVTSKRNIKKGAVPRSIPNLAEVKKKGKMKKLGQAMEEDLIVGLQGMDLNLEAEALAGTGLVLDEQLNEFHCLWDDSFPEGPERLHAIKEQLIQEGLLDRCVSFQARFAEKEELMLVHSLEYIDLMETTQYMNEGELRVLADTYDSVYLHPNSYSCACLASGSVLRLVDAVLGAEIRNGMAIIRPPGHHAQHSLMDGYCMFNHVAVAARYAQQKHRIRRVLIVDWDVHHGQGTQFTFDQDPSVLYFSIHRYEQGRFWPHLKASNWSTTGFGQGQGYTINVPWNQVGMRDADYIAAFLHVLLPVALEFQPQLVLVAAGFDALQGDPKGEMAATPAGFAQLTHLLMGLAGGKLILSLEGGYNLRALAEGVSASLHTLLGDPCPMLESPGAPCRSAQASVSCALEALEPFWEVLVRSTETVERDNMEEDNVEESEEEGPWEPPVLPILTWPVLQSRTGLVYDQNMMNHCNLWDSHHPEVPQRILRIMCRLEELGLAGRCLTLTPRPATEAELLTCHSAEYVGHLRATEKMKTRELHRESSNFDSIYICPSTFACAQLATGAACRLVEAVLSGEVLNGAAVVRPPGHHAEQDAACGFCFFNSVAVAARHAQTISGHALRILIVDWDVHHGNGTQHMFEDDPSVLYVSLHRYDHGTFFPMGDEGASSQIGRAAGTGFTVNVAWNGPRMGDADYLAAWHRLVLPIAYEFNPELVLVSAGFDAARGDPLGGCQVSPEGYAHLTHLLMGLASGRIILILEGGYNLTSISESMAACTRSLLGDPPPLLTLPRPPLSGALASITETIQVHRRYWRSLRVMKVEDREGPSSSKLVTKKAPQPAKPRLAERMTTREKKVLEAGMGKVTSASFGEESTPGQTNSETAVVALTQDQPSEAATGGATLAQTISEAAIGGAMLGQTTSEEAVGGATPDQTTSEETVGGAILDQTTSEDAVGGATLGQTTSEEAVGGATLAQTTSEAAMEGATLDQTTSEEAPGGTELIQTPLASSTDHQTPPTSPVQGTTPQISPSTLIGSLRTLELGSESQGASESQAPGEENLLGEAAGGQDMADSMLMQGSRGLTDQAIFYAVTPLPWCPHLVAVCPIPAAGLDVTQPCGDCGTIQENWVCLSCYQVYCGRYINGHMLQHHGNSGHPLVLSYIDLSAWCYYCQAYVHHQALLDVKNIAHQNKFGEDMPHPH
Experimental: as §1, §2, §3

HDAC7 = molecular target: T3, HDAC7 (Homo sapiens, UniProt Q8WUI4)
T3 sequence (Q8WUI4 1-952): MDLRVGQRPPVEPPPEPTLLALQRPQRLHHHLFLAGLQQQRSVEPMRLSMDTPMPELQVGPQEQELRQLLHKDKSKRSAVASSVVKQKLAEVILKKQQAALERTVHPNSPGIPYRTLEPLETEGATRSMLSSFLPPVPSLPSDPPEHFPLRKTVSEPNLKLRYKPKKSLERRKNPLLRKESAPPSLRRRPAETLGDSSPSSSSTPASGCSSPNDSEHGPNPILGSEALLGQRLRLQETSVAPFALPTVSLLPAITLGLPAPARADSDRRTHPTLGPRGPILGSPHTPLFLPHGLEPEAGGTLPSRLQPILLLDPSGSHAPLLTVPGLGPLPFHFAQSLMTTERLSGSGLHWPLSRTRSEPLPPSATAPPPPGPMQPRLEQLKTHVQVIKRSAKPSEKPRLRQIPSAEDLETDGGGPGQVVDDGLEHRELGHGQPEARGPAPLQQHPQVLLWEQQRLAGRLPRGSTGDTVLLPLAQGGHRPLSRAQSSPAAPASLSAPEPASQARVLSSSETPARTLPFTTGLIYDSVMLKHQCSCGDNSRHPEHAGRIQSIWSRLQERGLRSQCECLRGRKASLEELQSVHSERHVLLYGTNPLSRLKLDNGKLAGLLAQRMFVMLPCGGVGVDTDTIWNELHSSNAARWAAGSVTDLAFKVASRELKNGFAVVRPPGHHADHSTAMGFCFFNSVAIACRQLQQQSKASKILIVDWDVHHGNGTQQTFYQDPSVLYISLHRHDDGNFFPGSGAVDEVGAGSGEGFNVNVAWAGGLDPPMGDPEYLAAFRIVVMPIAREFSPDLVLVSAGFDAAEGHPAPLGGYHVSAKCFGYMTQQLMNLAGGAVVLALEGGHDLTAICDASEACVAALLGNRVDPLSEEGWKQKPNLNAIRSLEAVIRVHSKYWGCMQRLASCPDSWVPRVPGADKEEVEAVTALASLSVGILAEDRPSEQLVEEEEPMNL
Experimental: as §1, §2, §3

Sequence of HDAC4 (P56524 whole entry, species assumed): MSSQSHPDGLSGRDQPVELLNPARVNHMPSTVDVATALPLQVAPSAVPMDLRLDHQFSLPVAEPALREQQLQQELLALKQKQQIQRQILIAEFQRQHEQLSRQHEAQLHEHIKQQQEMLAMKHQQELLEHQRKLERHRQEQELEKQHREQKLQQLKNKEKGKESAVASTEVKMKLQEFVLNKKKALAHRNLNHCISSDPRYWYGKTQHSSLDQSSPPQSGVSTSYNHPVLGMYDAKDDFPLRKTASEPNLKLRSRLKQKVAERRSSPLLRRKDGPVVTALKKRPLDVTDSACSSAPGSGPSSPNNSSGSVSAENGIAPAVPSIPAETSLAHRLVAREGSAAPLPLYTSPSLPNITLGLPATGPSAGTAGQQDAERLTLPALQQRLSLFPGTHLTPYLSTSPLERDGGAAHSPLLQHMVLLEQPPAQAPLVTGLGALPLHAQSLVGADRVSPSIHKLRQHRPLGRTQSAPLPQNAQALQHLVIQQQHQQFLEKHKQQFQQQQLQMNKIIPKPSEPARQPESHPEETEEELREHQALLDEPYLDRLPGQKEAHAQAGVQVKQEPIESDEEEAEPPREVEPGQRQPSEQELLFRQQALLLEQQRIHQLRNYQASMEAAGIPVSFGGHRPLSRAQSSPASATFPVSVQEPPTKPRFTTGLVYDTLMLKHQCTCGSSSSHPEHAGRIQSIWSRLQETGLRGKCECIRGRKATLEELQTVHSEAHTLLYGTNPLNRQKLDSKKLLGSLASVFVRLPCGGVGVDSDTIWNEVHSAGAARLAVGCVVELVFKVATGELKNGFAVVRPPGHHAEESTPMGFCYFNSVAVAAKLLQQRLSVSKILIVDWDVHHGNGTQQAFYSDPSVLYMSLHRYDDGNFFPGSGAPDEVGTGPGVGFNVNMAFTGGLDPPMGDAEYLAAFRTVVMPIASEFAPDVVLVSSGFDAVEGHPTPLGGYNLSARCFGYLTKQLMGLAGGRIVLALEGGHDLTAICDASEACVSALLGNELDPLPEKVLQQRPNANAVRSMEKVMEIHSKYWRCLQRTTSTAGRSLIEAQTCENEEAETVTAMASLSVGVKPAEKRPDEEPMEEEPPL
Sequence of HDAC3 (O15379 whole entry): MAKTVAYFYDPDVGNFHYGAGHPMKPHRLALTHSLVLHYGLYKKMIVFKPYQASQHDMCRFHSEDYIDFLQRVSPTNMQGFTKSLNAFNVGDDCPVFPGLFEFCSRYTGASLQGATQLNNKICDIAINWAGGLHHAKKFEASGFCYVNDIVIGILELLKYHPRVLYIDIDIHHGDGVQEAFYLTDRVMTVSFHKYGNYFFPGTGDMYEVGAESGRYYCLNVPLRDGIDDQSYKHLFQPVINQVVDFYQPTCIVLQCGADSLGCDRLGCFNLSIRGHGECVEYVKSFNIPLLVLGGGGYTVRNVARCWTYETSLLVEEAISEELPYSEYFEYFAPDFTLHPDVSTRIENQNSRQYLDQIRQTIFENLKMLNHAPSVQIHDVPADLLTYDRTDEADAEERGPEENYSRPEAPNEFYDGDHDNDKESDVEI
Sequence of HDAC3 (Q9Y618 395-489 partner limits assumed): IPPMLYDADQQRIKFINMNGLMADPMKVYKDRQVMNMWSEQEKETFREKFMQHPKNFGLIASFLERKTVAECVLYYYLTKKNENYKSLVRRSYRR

CC1CCC(C(=O)O)CN1C(=O)Cc1ccc(F)cc1Cl (racemic) [BnH12001, 1-(2-(2-chloro-4-fluorophenyl)acetyl)-6-methylpiperidine-3-carboxylic acid]
did not show any inhibitory effect: Inhibitory effect on HDAC11 catalytic activity (HDAC11) | Inhibitory effect on HDAC3 catalytic activity (HDAC3) | Inhibitory effect on HDAC4 catalytic activity (HDAC4) | Inhibitory effect on HDAC6 catalytic activity (HDAC6) | Inhibitory effect on HDAC7 catalytic activity (HDAC7)
